Compared with `COc1cc2c(cc1C)nc(Cl)n[n+]2[O-]` [Compound 117, 3-Chloro-7-methoxy-6-methyl-1,2,4-benzotriazine 1-oxide], `COc1cc2c(cc1C)nc(NCCN(C)C)n[n+]2[O-]` [Compound 118, N^1,N^1-Dimethyl-N^2-(7-methoxy-6-methyl-1-oxido-1,2,4-benzotriazin-3-yl)-1,2-ethanediamine] is lower in melting point: 200 to 202 °C for the first, 182 to 184 °C for the second.

First: CC(C)(C)c1ccc2c(c1)nc(N)n[n+]2[O-] [Compound 153, 6-tert-Butyl-1,2,4-benzotriazin-3-amine 1-Oxide]
Second: CC(C)(C)c1ccc2c(c1)nc(Cl)n[n+]2[O-] [Compound 154, 6-tert-Butyl-3-chloro-1,2,4-benzotriazine 1-oxide]
The melting point of the first is higher: 209 to 212 °C for the first, 91 to 94 °C for the second.

First: CCCN(CCC)CCNc1nc2cc(C(C)C)ccc2[n+]([O-])n1 [Compound 151, N^1-(6-Isopropyl-1-oxido-1,2,4-benzotriazin-3-yl)-N^2,N^2-dipropyl-1,2-ethanediamine]
Second: CCCN(CCC)CCNc1nc2cc(C)ccc2[n+]([O-])n1 [Compound 140, N^1-(6-Methyl-1-oxido-1,2,4-benzotriazin-3-yl)-N^2,N^2-dipropyl-1,2-ethanediamine]
The melting point of the first is lower: 79 to 81 °C for the first, 88 to 90 °C for the second.

Compared with `O=C(O)CNc1nc2ccccc2[n+]([O-])n1` [Compound 21, [(1-Oxido-1,2,4-benzotriazin-3-yl)amino]acetic acid], `O=C(O)Cc1ccc(Nc2nc3ccccc3[n+]([O-])n2)cc1` [Compound 52, {4-[(1-Oxido-1,2,4-benzotriazin-3-yl)amino]phenyl}acetic acid] is higher in melting point: 217 to 219 °C for the first, 243 to 245 °C for the second.

First: Cc1cc2nc(NCCNC(=O)OC(C)(C)C)n[n+]([O-])c2cc1C [Compound 105, tert-Butyl 2-[(6,7-dimethyl-1-oxido-1,2,4-benzotriazin-3-yl)amino]ethylcarbamate]
Second: Cc1cc2nc(NCCN(C)C)n[n+]([O-])c2cc1C [Compound 106, N^1-(6,7-Dimethyl-1-oxido-1,2,4-benzotriazin-3-yl)-N^2,N^2-dimethyl-1,2-ethanediamine]
The melting point of the first is higher: 226 to 228 °C for the first, 175 to 178 °C for the second.

`Nc1nc2c(Cl)cccc2[n+]([O-])n1` [Compound 3aa, 5-Chloro-1,2,4-benzotriazin-3-amine 1-oxide] and `Nc1nc2c(F)cccc2[n+]([O-])n1` [Compound 3ab, 5-Fluoro-1,2,4-benzotriazin-3-amine 1-oxide] cannot be ordered by melting point: 251 to 254 °C for the first, 252 to 256 °C for the second.

`CCN(CC)c1ccc2c(c1)nc(N)n[n+]2[O-]` [Compound 13, N^6, N^6-Diethyl-1,2,4-benzotriazine-3,6-diamine 1-oxide] and `CSc1ccc2c(c1)nc(N)n[n+]2[O-]` [Compound 3w, 6-(Methylsulfanyl)-1,2,4-benzotriazin-3-amine 1-oxide] cannot be ordered by melting point: 247 to 251 °C for the first, 248 to 250 °C for the second.

Compared with `COc1cc2nc(NCCN(C)C)n[n+]([O-])c2cc1C` [Compound 114, N^1-(6-Methoxy-7-methyl-1-oxido-1,2,4-benzotriazin-3-yl)-N^2,N^2-dimethyl-1,2-ethanediamine], `CC(C)c1ccc2c(c1)nc(NCCN(C)C)n[n+]2[O-]` [Compound 147, N^1-(6-Isopropyl-1-oxido-1,2,4-benzotriazin-3-yl)-N^2,N^2-dimethyl-1,2-ethanediamine] is lower in melting point: 167 to 169 °C for the first, 87 to 89 °C for the second.

Compared with `CCCCSc1ccc2c(c1)nc(N)n[n+]2[O-]` [Compound 3x, 6-(Butylsulfanyl)-1,2,4-benzotriazin-3-amine 1-oxide], `CCCCSc1ccc2nc(N)n[n+]([O-])c2c1` [Compound 3o, 7-(Butylsulfanyl)-1,2,4-benzotriazin-3-amine 1-oxide] is higher in melting point: 180 to 182 °C for the first, 215 to 217 °C for the second.

Compared with `CCCN(CCC)CCNc1nc2cccc(C)c2[n+]([O-])n1` [Compound 165, N^1-(8-Methyl-1-oxido-1,2,4-benzotriazin-3-yl)-N^2,N^2-dipropyl-1,2-ethanediamine], `CCN(CC)CCNc1nc2cc(C)c(C)cc2[n+]([O-])n1` [Compound 166, N^1-(6,7-Dimethyl-1-oxido-1,2,4-benzotriazin-3-yl)-N^2,N^2-diethyl-1,2-ethanediamine] is higher in melting point: 91 to 93 °C for the first, 130 to 132 °C for the second.

Compared with `[O-][n+]1nc(CC2CO2)nc2ccccc21` (stereo not shown) [Compound 62, 3-(2-Oxiranylmethyl)-1,2,4-benzotriazine 1-oxide], `[O-][n+]1nc(-c2ccccc2)nc2ccccc21` [Compound 57, 3-Phenyl-1,2,4-benzotriazine 1-oxide] is higher in melting point: 105 to 107 °C for the first, 125 to 127 °C for the second.

First: COc1cccc2nc(N)n[n+]([O-])c12 (hydrate or solvate) [Compound 3a, 8-Methoxy-1,2,4-benzotriazin-3-amine 1-oxid]
Second: CSc1cccc2nc(N)n[n+]([O-])c12 (hydrate or solvate) [Compound 3f, 8-(Methylsulfanyl)-1,2,4-benzotriazin-3-amine 1-oxide]
The melting point of the first is lower: 235 to 239 °C for the first, 271 to 275 °C for the second.

First: Cc1ccc2c(c1)nc(NCCN1C(C)CCCC1C)n[n+]2[O-] (stereo not shown) [Compound 78, N-[2-(2,6-Dimethyl-1-piperidinyl)ethyl]-6-methyl-1,2,4-benzotriazin-3-amine 1-oxide]
Second: COc1ccc2c(c1)nc(NCCN1C(C)CCCC1C)n[n+]2[O-] (stereo not shown) [Compound 141, N-[2-(2,6-Dimethyl-1-piperidinyl)ethyl]-6-methoxy-1,2,4-benzotriazin-3-amine 1-oxide]
The melting point of the first is lower: 162 to 165 °C for the first, 170 to 171 °C for the second.

Compared with `CN(C)CCNc1nc2cc(C(C)(C)C)ccc2[n+]([O-])n1` [Compound 155, N^1-(6-tert-Butyl-1-oxido-1,2,4-benzotriazin-3-yl)-N^2,N^2-dimethyl-1,2-ethanediamine], `CCN(CCCNc1nc2ccccc2[n+]([O-])n1)C(=O)OC(C)(C)C` [Compound 32, tert-Butyl 3-[(1-oxido-1,2,4-benzotriazin-3-yl)amino]propyl(ethyl)carbamate] is lower in melting point: 140 to 144 °C for the first, 64 to 66 °C for the second.

Compared with `CSc1cccc2c1nc(N)n[n+]2[O-]` [Compound 3ad, 5-Methylsulfanyl-1,2,4-benzotriazin-3-amine 1-oxide], `Nc1nc2c([N+](=O)[O-])cccc2[n+]([O-])n1` [Compound 3ac, 5-Nitro-1,2,4-benzotriazin-3-amine-1-oxide] is higher in melting point: 248 to 252 °C for the first, 269 to 272 °C for the second.

Compared with `COc1ccc2nc(NCCN3CCCCC3)n[n+]([O-])c2c1` [Compound 93, 7-Methoxy-N-[2-(1-piperidinyl)ethyl]-1,2,4-benzotriazin-3-amine 1-oxide], `Cc1ccc2nc(NCCN3CCCCC3)n[n+]([O-])c2c1` [Compound 89, 7-Methyl-N-[2-(1-piperidinyl)ethyl]-1,2,4-benzotriazin-3-amine 1-oxide] is higher in melting point: 162 to 165 °C for the first, 166 to 168 °C for the second.

Compared with `CN(C)CCNC(=O)Cc1ccc(Nc2nc3ccccc3[n+]([O-])n2)cc1` [Compound 54, N-[2-(Dimethylamino)ethyl]-2-{4-[(1-oxido-1,2,4-benzotriazin-3-yl)amino]phenyl}acetamide], `CC(C)(C)OC(=O)NCCCNc1nc2ccccc2[n+]([O-])n1` [Compound 29, tert-Butyl 3-[(1-oxido-1,2,4-benzotriazin-3-yl)amino]propylcarbamate] is lower in melting point: 225 to 226 °C for the first, 145 to 147 °C for the second.

First: COCCOc1ccc2nc(Cl)n[n+]([O-])c2c1 [Compound 96, 3-Chloro-7-(2-methoxyethoxy)-1,2,4-benzotriazine 1-oxide]
Second: [O-][n+]1nc(Cl)nc2ccc(OCCN3CCOCC3)cc21 [Compound 98, 3-Chloro-7-[2-(4-morpholinyl)ethoxy]-1,2,4-benzotriazine 1-oxide]
The melting point of the first is lower: 121 to 125 °C for the first, 144 to 146 °C for the second.

First: COc1cc2c(cc1C)nc(NCCN1CCCCC1)n[n+]2[O-] [Compound 119, 7-Methoxy-6-methyl-N-[2-(1-piperidinyl)ethyl]-1,2,4-benzotriazin-3-amine 1-oxide]
Second: Cc1cc(C)c2c(c1)nc(NCCN1CCCCC1)n[n+]2[O-] [Compound 110, 6,8-Dimethyl-N-[2-(1-piperidinyl)ethyl]-1,2,4-benzotriazin-3-amine 1-oxide]
The melting point of the first is higher: 195 to 197 °C for the first, 177 to 178 °C for the second.

First: [O-][n+]1nc(Cl)nc2cc(Cl)ccc21 [Compound 133, 3,6-Dichloro-1,2,4-benzotriazine 1-Oxide]
Second: Cc1cccc2nc(Cl)n[n+]([O-])c12 [Compound 100, 3-Chloro-8-methyl-1,2,4-benzotriazine 1-oxide]
The melting point of the first is lower: 149 to 151 °C for the first, 170 to 173 °C for the second.

First: Nc1nc2ccc(OCCBr)cc2[n+]([O-])n1 [Compound 15, 7-(2-Bromoethoxy)-1,2,4-benzotriazin-3-amine 1-oxide]
Second: CCc1nc2cc(F)ccc2[n+]([O-])n1 [Compound 160, 3-Ethyl-6-fluoro-1,2,4-benzotriazine 1-oxide]
The melting point of the first is higher: 228 to 230 °C for the first, 122 to 124 °C for the second.

For `Nc1nc2cccc(C(F)(F)F)c2[n+]([O-])n1` [Compound 3e, 8-Trifluoromethyl-1,2,4-benzotriazin-3-amine 1-oxid], the melting point was 280 to 286 °C (dec.).
With `Cc1cccc2nc(N)n[n+]([O-])c12` [Compound 3b, 8-Methyl-1,2,4-benzotriazin-3-amine 1-oxide] the melting point was 265 °C (dec.).
In the case of `COc1cccc2c1nc(N)n[n+]2[O-]` [Compound 3y, 5-Methoxy-1,2,4-benzotriazin-3-amine 1-oxide], the melting point is reported as 267 °C (dec.).
For `Nc1nc2cc(C(F)(F)F)ccc2[n+]([O-])n1` [Compound 3v, 6-Trifluoromethyl-1,2,4-benzotriazin-3-amine 1-oxide], the melting point was 280 to 284 °C (dec.).
For `Nc1nc2cccc(Cl)c2[n+]([O-])n1` [Compound 3d, 8-Chloro-1,2,4-benzotriazin-3-amine 1-oxide], the melting point was 280 to 290 °C (dec.).
For `Nc1nc2ccc(F)cc2[n+]([O-])n1` [Compound 3k, 7-Fluoro-1,2,4-benzotriazin-3-amin 1-oxide], the melting point was 280 to 290 °C (dec.).
In the case of `Nc1nc2ccc(C(F)(F)F)cc2[n+]([O-])n1` [Compound 3m, 7-Trifluoromethyl-1,2,4-benzotriazin-3-amine 1-oxide], the melting point is reported as 290 °C (dec.).

From patent publication US20040192686A1, “Benzoazine mono-N-oxides and benzoazine 1,4 dioxides and compositions therefrom for the therapeutic use in cancer treatments” (Auckland Uniservices Limited, priority 2003, published 2004)
